Structures can show the parent of a compound that is named as a salt.

Consider two compounds from US8742156B2 (priority 2010, dated 2014).

The subject of this experiment is H1N1 virus (A/Vicotria/07159200/07 (Tamiflu-resistant strain)). Format: cell-based, Human influenza H1N1 virus. The settings on record: for effect on viral titers of Tamiflu-resistant (Tami-R) H1N1 virus: FIG. 1, multiplicity of infection of 0.2.

Take `N=C(Nc1ccccc1)SCCCSC(=N)Nc1ccccc1` [Compound 58, Carbamimidothioic acid, phenyl-, 1,3-propanediyl ester, dihydrobromide]: the “effect on viral titers of Tamiflu-resistant (Tami-R) H1N1 virus” value is on record as “potent inhibitory effects”. Moreover, for the setting “FIG. 1, multiplicity of infection of 0.2, 48-hour post-infection”, the “viral titer of Tami-R H1N1-infected cells decreased (fold)” value amounted to 4 fold.
Take `CCOC(=O)C1=C[C@@H](OC(CC)CC)[C@H](NC(C)=O)[C@@H](N)C1` [Tamiflu, oseltamivir, reference compound]: the “effect on viral titers of Tamiflu-resistant (Tami-R) H1N1 virus” value is on record as “minimal effects”. Besides, the “Tami-R H1N1 viral titers decreased (%)” value (10 uM, multiplicity of infection of 0.2, 48-hour post-infection) amounted to 20%.
